# Assay results taken from patent US10500198B2, “Bis-benzylidine piperidone proteasome inhibitor with anticancer activity” (The Johns Hopkins University, priority 2013, dated 2019).
# pIC50: −log10 of the molar value. Counter-ions that a name gives are not always drawn.
# How the values were obtained:
# [1] = system: CasKi; test: Cell viability after 48-hr treatment (Table 1); format: cell-based; details: Homo sapiens, Ca-Ski; 48-hr treatment; XTT assay; read-out: IC50, CasKi
# Description: (§1) Cell viability was assayed using CellTiter 960 AQueous One Solution Reagent (Promega, Madison, Wis.). Cells seeded at the concentration of 1,000 cells/well for HeLa, 5,000 cells/well for ES2 and HCT116 and 10,000-20,000 cells/well for other cell lines in 100 μL medium in 96-well plate were treated with RA series compounds at specified concentrations. After the indicated periods, cells were incubated according to the manufacturer's protocol with the MTS labeling mixture for 1-2 hr and absorbance at 490 nm measured using a Benchmark Plus microplate spectrophotometer (BIO-RAD).
# [2] = system: HOK-16B; test: Cell viability after 48-hr treatment (Table 1); format: cell-based; details: 48-hr treatment; XTT assay; read-out: IC50, HOK-16B
# Description: as §1
# [3] = system: SKOV3; test: Cell viability after 48-hr treatment (Table 1); format: cell-based; details: Homo sapiens, SK-OV-3; 48-hr treatment; XTT assay; read-out: IC50, SKOV3
# Description: (§2) Cell viability was assayed using CellTiter 960 AQueous One Solution Reagent (Promega, Madison, Wis.). Cells seeded at the concentration of 1,000 cells/well for HeLa, 5,000 cells/well for ES2 and HCT116 and 10,000-20,000 cells/well for other cell lines in 100 μL medium in 96-well plate were treated with RA series compounds at specified concentrations. […]
# [4] = system: FaDu; test: Cell viability after 48-hr treatment (Table 1); format: cell-based; details: Homo sapiens, FaDu; 48-hr treatment; XTT assay; read-out: IC50, FaDu
# Description: as §2
# [5] = system: C33A; test: Cell viability after 48-hr treatment (Table 1); format: cell-based; details: Homo sapiens, C-33-A; 48-hr treatment; XTT assay; read-out: IC50, C33A
# Description: as §2
# [6] = system: MM.1S; test: Cell viability after 48-hr treatment (Table 1); format: cell-based; details: Homo sapiens, MM1.S, XTT assay
# Description: as §2
# [7] = system: MM and HeLa cells; test: Annexin-V flow cytometry; format: cell-based; details: 12 hr after treating
# Description: Activation of ICE family members such as caspase-3 and -7 results in cleavage of poly ADP ribose polymerase (PARP) to 85 kDa and 25 kDa fragments and drives apoptosis.
# Induction of apoptosis was determined using Annexin V-PE Apoptosis Detection Kit I (BD Pharmingen, San Diego, Calif.) according to the manufacturer's protocol.
# [8] = system: ES-2; test: Cell viability after 48-hr treatment (Table 1); format: cell-based, human; details: Homo sapiens, ES-2, XTT assay
# Description: (§3) Cells seeded at the concentration of 1,000 cells/well for HeLa, 5,000 cells/well for ES2 and HCT116 and 10,000-20,000 cells/well for other cell lines in 100 μL medium in 96-well plate were treated with RA series compounds at specified concentrations. […]
# [9] = system: NCl-H929; test: Cell viability after 48-hr treatment (Table 1); format: cell-based, human; details: Homo sapiens, XTT assay
# Description: as §3
# [10] = system: 4UbFL reporter; test: Proteasome inhibition in vivo (4UbFL reporter bioluminescence); details: i.m. electroporated 4UbFL; RA190 40 mg/kg i.p., bortezomib 1.5 mg/kg i.p.
# Description: After the indicated time points of treatment, bioluminescence was measured by injection of luciferin and imaging with an IVIS 200 (fold change±SD, *p<0.05, **p<0.01).
# Two hours after gene gun delivery of the plasmid or one day post electroporation, mice were injected i.p. with 100 uL of luciferin (3 mg/mL) and anesthetized with isoflurane and optical imaging was performed for basal level luciferase expression. Images were acquired for 10 min with a Xenogen IVIS 200 (Caliper, Hopkinton, Mass.). Equally sized areas were analyzed using Living Image 2.20 software.
# [11] = target: purified 20S proteasomes (Homo sapiens, UniProt P28072+P28074+Q99436); test: 20S proteolytic activity assay; format: biochemical; details: 1 μM, 30 min
# Description: Actin was used as a loading control. […] In FIG. 9C-E, purified 20S proteasomes were treated for 30 min with or without compounds (1 μM) prior to the addition of the specific fluorogenic substrate for chymotryptic (9C), tryptic (9D) or PGPH (9E) hydrolytic proteasome capacities. […] DMSO was added to all samples to a final concentration of 0.1% (upper panel). The effect of DMSO is highlighted by including ubiquitin—AMC (0.5 μM) hydrolysis with 2 nM UCH37 lacking DMSO (orange, bottom panel). In FIG. 9H, purified 19S RP (500 nM) in buffer was treated with corresponding compounds 30 min at 37° C. and AMC cleavage was measured with a fluorometer for 20 min. Ubal was used as a positive control.
# Release of free AMC by the enzyme reaction was determined by measuring its fluorescence at 380 nm (excitation) and 440 nm (emission). The graphs shown are representative of at least three independent determinations and each data point is the mean of ±SD of triplicate determinations.
# 20S proteasome cleaves the chymotryptic substrate and releases fluorescent AMC.
# [12] = system: RPMI8226; test: Cell viability after 48-hr treatment (Table 1); format: cell-based; details: Homo sapiens, RPMI-8226, XTT assay
# Description: as §3
# [13] = system: HT3; test: Cell viability after 48-hr treatment (Table 1); format: cell-based; details: Homo sapiens, HT-3; 48-hr treatment; XTT assay; read-out: IC50, HT3
# Description: as §3
# [14] = system: HaCaT; test: Cell viability after 48-hr treatment (Table 1); format: cell-based; details: Homo sapiens, HaCaT; 48-hr treatment; XTT assay; read-out: IC50, HaCaT
# Description: as §3
# [15] = system: SiHa; test: Cell viability after 48-hr treatment (Table 1); format: cell-based; details: Homo sapiens, SiHa; 48-hr treatment; XTT assay; read-out: IC50, SiHa
# Description: as §3
# [16] = system: HeLa; test: Cell viability after 48-hr treatment (Table 1); format: cell-based, human; details: Homo sapiens, HeLa; 48-hr treatment; XTT assay; read-out: IC50, HeLa
# Description: as §2
# [17] = system: OVCAR3; test: Cell viability after 48-hr treatment (Table 1); format: cell-based, human; details: Homo sapiens, OVCAR-3, XTT assay
# Description: as §2
# [18] = system: HeLa cells; test: Cell surface HSP90 staining; format: cell-based, human; details: 24 hr
# Excerpt: Cell surface HSP90 was detected by staining with purified anti-HSP90 mAb (Stressgen), followed by PE-conjugated anti-mouse IgG1. The data were acquired with a FACSCalibur and analyzed using CellQuest software.
# [19] = Complete blood counts and blood chemistry of C57BL/6 mice carrying TC-1 tumor; details: C57BL/6 mice with TC-1 tumor; nine doses every third day: RA190 40 mg/kg p.o., Bortezomib 1.5 mg/kg i.p.; mean ± SD, n = 3;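 note: blood drawn from the heart after euthanasia, cell counts read on an automated hemocytometer, heparinized plasma analyzed on an automated clinical chemistry analyzer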
# [20] = system: HeLa cells; test: Drug combination index assay; format: cell-based, human; details: Homo sapiens, 48 hr, read-out: IC50 (single agent, Compusyn)
# Description: The combination indices and a normalized isobologram were calculated using Compusyn software (www.combosyn.com).
# [21] = system: cancer cells; test: Antiproliferative activity against cancer cells (design rationale); format: cell-based
# Excerpt: We used Chloro and Nitro functional groups as substituent's on the aromatic ring due to their greater electron withdrawing effect at ortho (or) para (or) meta (or) both positions along with different amino acid linkages on bis-benzylidine piperidone moiety. Amino acids were chosen based in their physical characteristics like very hydrophobic (phenylalanine), strongly basic and hydrophilic (lysine), basic and hydrophilic (histidine) and amphiphilic (glycine). Commercially available Fmoc and Boc protected amino acids were used in the synthesis, and they were evaluated for their antiproliferatory activity against cancer cells.
# Next we synthesized another set of compounds by converting free amine functionality to its Acetate (Ac), Acrolyl (Acr) and Benzoyl […] analogs as these units are part of many anticancer drugs because of their smaller size and feasibility to form inter molecular hydrogen bonds with proteins.
# In the RA195 molecule two amino functionalities of lysine can provide more flexibility to make better analogs.
# [22] = system: NCI-H929 cells; test: Active caspase-3 by FACS; format: cell-based, human; details: 0.5 μM, 8 h
# Description: NCI-H929 cells were treated with RA195 (0.5 μM) and Bz(0.5 μM) for the period of 8 h. Cells were stained for PE-conjugated Caspase-3 antibody and measured active caspase-3 by FACS.
# [23] = system: U266 cells; test: Active caspase-3 by FACS; format: cell-based; details: 0.5 μM, 8 h
# Description: U266 cells were treated with RA195 (0.5 μM) and Bz(0.5 μM) for the period of 8 h. Cells were stained for PE-conjugated Caspase-3 antibody and measured active caspase-3 by FACS.
compound,measurement,setting,value
"CC(C)C[C@H](NC(=O)[C@H](Cc1ccccc1)NC(=O)c1cnccn1)B(O)O [Bortezomib, reference compound]",pIC50,[1],7.30
same,pIC50,[2],7.70
same,pIC50,[3],> 5.60
same,pIC50,[4],> 5.60
same,pIC50,[5],> 5.60
same,pIC50,[6],8.30
same,apoptosis (Annexin-V),[7],trigger extensive apoptosis
same,pIC50,[8],7.70
same,pIC50,[9],8.30
same,"bioluminescence compared to vehicle alone, 4 hr after treatment",[10],2 fold
same,"increase in bioluminescence, one day post-treatment",[10],4 fold
same,chymotryptic activity of the 20S proteasome (Suc-LLVY-AMC),[11],inhibits
same,pIC50,[12],8.00
same,pIC50,[13],> 5.60
same,pIC50,[14],> 5.60
same,pIC50,[15],6.00
same,pIC50,[16],7.52
same,pIC50,[17],> 5.60
same,cells with cell-surface HSP90,[18],12.8%
same,ALBNEW (Albumin),[19],2.50 ± 0.10
same,ALPNEW (Alkaline Phosphatase),[19],49 ± 5.29
same,ALTNEW (Alanine Aminotransferase),[19],26.33 ± 2.51
same,AMYL (Amylase),[19],473 ± 57.86
same,ASTNEW (Aspartate aminotransferase),[19],53 ± 18.52
same,BA(Basophils),[19],0.07 ± 0.06
same,BUNNEW (Blood Urea Nitrogen),[19],22.66 ± 5.13
same,CA (Calcium),[19],8.83 ± 0.60
same,CHOL (Cholesterol),[19],69 ± 7.93
same,CK_NEW (Creatinine Kinase),[19],93.66 ± 3.52
same,CREAT (Creatinine),[19],0.33 ± 0.05
same,EO (Eosinophils),[19],0.64 ± 0.48
same,GGTNEW (Gamma-Glutamyl Transferase),[19],5.00 ± 0.67
same,GLU (Glucose),[19],128 ± 20.29
same,HCT(Hematocrit),[19],42.36 ± 4.15
same,HDLNEW (High Density Lipoprotein),[19],28.33 ± 4.61
same,Hb (Hemoglobin),[19],11.3 ± 0.70
same,LDH (lactate Dehydrogenase),[19],245.33 ± 96
same,LY(Lymphocytes),[19],2.12 ± 1.83
same,MCHC (mean corpuscular hemoglobin concentration),[19],26.73 ± 1.16
same,MCV (Mean corpuscular Volume),[19],55.66 ± 1.72
same,MO(Monocytes),[19],0.20 ± 0.13
same,MPV (Mean Platelet Volume),[19],5.40 ± 0.10
same,NE(Neutrophils),[19],24.06 ± 15.07
same,PLT (Platelet),[19],1346 ± 87.5
same,RDW (Red Blood Cell Distribution Width),[19],20.13 ± 0.61
same,TBIL1 (Total bilirubin),[19],0.26 ± 0.05
same,TPROT (Total protein),[19],4.40 ± 0.26
same,TRIG (Triglycerides),[19],56.66 ± 15.88
same,UA (Uric Acid),[19],2.73 ± 0.87
same,WBC(White Blood Cells),[19],24.85 ± 23.94
same,pIC50,[20],7.66
Cl.N[C@@H](Cc1ccccc1)C(=O)N1C/C(=C\c2ccc([N+](=O)[O-])cc2)C(=O)/C(=C/c2ccc([N+](=O)[O-])cc2)C1 [RA183],antiproliferative potency among analogs,[21],higher potency
same,active caspase-3,[22],caused an increase in caspase-3 expression
same,chymotryptic activity of the 20S proteasome (Suc-LLVY-AMC),[11],do not
same,active caspase-3,[23],caused an increase in caspase-3 expression
"CC(=O)N[C@@H](Cc1ccccc1)C(=O)N1C/C(=C\c2ccc(Cl)c(Cl)c2)C(=O)/C(=C/c2ccc(Cl)c(Cl)c2)C1 [RA190Ac, 3,5-bis(3,4-dichlorobenzylidene)-1-(N-(1-oxo-S-3-phenyl-1-propan-2-yl)acetamide)-piperidin-4-one-HCl salt]",pIC50,[1],6.52
same,pIC50,[2],6.12
same,pIC50,[3],< 5.60
same,pIC50,[4],< 5.60
same,pIC50,[5],< 5.30
same,pIC50,[6],7.30
same,pIC50,[9],7.12
same,pIC50,[12],6.82
same,pIC50,[13],< 5.30
same,pIC50,[14],< 5.60
same,pIC50,[15],6.00
same,pIC50,[16],6.77
same,pIC50,[17],5.70
